Earlier results, collected in patent US8354121B2, “Tape preparation” (Dainippon Sumitomo Pharma Co., Ltd., priority 2006, dated 2013).

Columns and labels:
dopamine D2 receptor = dopamine D2 receptor (Homo sapiens, UniProt P14416); details: compared with haloperidol
serotonin 5-HT2 receptor = details: compared with haloperidol

Sequence of dopamine D2 receptor (P14416 whole entry, species assumed): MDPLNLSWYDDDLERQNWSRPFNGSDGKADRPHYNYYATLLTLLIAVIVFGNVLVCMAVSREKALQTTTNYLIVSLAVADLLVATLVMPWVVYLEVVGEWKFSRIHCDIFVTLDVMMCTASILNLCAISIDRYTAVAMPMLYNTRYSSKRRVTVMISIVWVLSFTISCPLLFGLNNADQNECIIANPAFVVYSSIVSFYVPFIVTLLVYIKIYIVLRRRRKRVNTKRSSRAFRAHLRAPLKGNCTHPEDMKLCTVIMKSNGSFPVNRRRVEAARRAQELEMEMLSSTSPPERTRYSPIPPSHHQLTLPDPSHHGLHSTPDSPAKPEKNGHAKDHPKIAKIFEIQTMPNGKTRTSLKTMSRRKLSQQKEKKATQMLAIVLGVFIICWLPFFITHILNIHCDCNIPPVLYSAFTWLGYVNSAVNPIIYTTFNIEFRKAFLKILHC

In the case of `CCN1CCN(c2cc(-c3ccc(F)cc3)c3c(n2)CCCCCC3)CC1` [Compound A, 2-(4-ethyl-1-piperazinyl)-4-(4-fluorophenyl)-5,6,7,8,9,10-hexahydrocycloocta[b]pyridine], the “affinity for dopamine D2 receptor” value (dopamine D2 receptor) is given as “higher affinity” and the “affinity for serotonin 5-HT2 receptor” value (serotonin 5-HT2 receptor) is given as “higher affinity”.
